Data reported in PubChem BioAssay (NCI).
Values joined by “and” are separate entries in the source; they are usually repeats but may differ in a detail not shown here. Identical values can stand only once.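 Growth conditions: 96-well plates. Treatment: test compound, 48 hours, 5 concentrations. Analysis: linear interpolation between bracketing concentrations; unreached endpoints set to highest concentration. The concentration for 50% growth inhibition is given as GI50. The concentration for full growth arrest is given as TGI.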

What was measured:
Assay in all cases: NCI anticancer screen, dose series, 48 h
U251 CNS = tested on: U251 CNS
HCT-116 colon = tested on: HCT-116 colon
UACC-257 melanoma = tested on: UACC-257 melanoma
SN12C renal = tested on: SN12C renal
SF-295 CNS = tested on: SF-295 CNS
NCI-H226 lung = tested on: NCI-H226 lung
ACHN renal = tested on: ACHN renal
SK-MEL-2 melanoma = tested on: SK-MEL-2 melanoma
HCC-2998 colon = tested on: HCC-2998 colon
NCI-H460 lung = tested on: NCI-H460 lung

Compound	GI50 (U251 CNS)	TGI (U251 CNS)	GI50 (HCT-116 colon)	TGI (HCT-116 colon)	GI50 (UACC-257 melanoma)	TGI (UACC-257 melanoma)	GI50 (SN12C renal)	TGI (SN12C renal)	GI50 (SF-295 CNS)	TGI (SF-295 CNS)	GI50 (NCI-H226 lung)	TGI (NCI-H226 lung)	GI50 (ACHN renal)	TGI (ACHN renal)	GI50 (SK-MEL-2 melanoma)	TGI (SK-MEL-2 melanoma)	GI50 (HCC-2998 colon)	TGI (HCC-2998 colon)	GI50 (NCI-H460 lung)	TGI (NCI-H460 lung)
O=C(N/N=C/c1coc2ccc(Cl)cc2c1=O)c1ccncc1	39.7 µM	> 100 µM	40.3 µM	> 100 µM	56.8 µM	> 100 µM	43.2 µM	> 100 µM	50.1 µM	> 100 µM	38.6 µM	> 100 µM	29.9 µM	> 100 µM	74.3 µM	> 100 µM	30.3 µM	72.3 µM	68.2 µM	> 100 µM
CCOCCc1c(O)nc(SC)[nH]c1=O	> 100 µM	> 100 µM	> 100 µM	> 100 µM	> 100 µM	> 100 µM	> 100 µM	> 100 µM	> 100 µM	> 100 µM	> 100 µM	> 100 µM	> 100 µM	> 100 µM	> 100 µM	> 100 µM	> 100 µM	> 100 µM	> 100 µM	> 100 µM
O=C(O)c1cc(N/C=C2\C(=O)c3ccccc3OC2O)ccc1O (stereo not given)	18 µg/mL	43.6 µg/mL	19.8 µg/mL	51 µg/mL	33.4 µg/mL	93.7 µg/mL	25.5 µg/mL	97.3 µg/mL	18.1 µg/mL	52.8 µg/mL	37.7 µg/mL	98.1 µg/mL	28.3 µg/mL	82.7 µg/mL	30.6 µg/mL	68.7 µg/mL	27.4 µg/mL	50.2 µg/mL	34 µg/mL	81.3 µg/mL
O=C(/C=C/C=C/c1ccccc1)c1ccc(Nc2nc(Nc3ccccc3)nc(Nc3ccccc3)n2)cc1	63.7 µM	> 100 µM	12.2 µM	> 100 µM	> 100 µM	> 100 µM	> 100 µM	> 100 µM	32.5 µM	> 100 µM	> 100 µM	> 100 µM	> 100 µM	> 100 µM	> 100 µM	> 100 µM	> 100 µM	> 100 µM	42.8 µM	> 100 µM
CS(=O)(=O)N1CCN(Cc2cc3nc(-c4cccc5[nH]ncc45)nc(N4CCOCC4)c3s2)CC1	1.05 µM and 0.684 µM	> 100 µM	1.72 µM and 0.494 µM	> 100 µM	0.184 µM and 0.162 µM	2.77 µM and > 2.32 µM	0.493 µM and 0.224 µM	> 100 µM	0.262 µM and 0.318 µM	3.11 µM and 3.62 µM	0.408 µM and 0.473 µM	> 21.6 µM	0.382 µM and 0.319 µM	> 100 µM	1.27 µM and 0.325 µM	> 100 µM	0.614 µM and 0.153 µM	> 100 µM	0.357 µM and 0.311 µM	> 100 µM
Nc1ncnc2c1c(-c1cccc(OCc3ccccc3)c1)cn2C1CC(CN2CCCC2)C1 (stereo not given)	1.51 µM	2.96 µM	1.38 µM	5.34 µM	0.867 µM	2.18 µM	3.09 µM	14.5 µM	1.9 µM	3.87 µM	1.34 µM	6.98 µM	2.93 µM	11 µM	1.66 µM	3.35 µM	2 µM	6.13 µM	1.66 µM	7.65 µM
Fc1ccc(CNc2c3ccccc3nc3ccccc23)cc1	3.02 µM	14.1 µM	2.12 µM	11.8 µM	2.59 µM	7.02 µM	2.64 µM	10.5 µM	2.9 µM	11.1 µM	2 µM	5.44 µM	1.93 µM	5.64 µM	2.39 µM	6.01 µM	1.95 µM	4.62 µM	2.3 µM	6.69 µM
Cn1cc(C2=C(c3c4n(c5ccccc35)CC(CN)C4)C(=O)NC2=O)c2ccccc21 (stereo not given)	2.61 µM	5.77 µM	2.32 µM	6.22 µM	3.92 µM	7.8 µM	3.4 µM	11 µM	3.54 µM	8.56 µM	3.93 µM	18 µM	3.16 µM	12.3 µM	1.69 µM	5.35 µM	4.01 µM	8.02 µM	3.79 µM	7.8 µM
Nc1nc(=O)n(C2CC(O)C(O)C(CO)O2)cc1F (stereo not given)		> 100 µM		> 100 µM		> 100 µM		> 100 µM		> 100 µM		> 100 µM		> 100 µM		> 100 µM		> 100 µM		> 100 µM
COc1ccc(-c2cc(-c3ccc(O)cc3)nc3nc(=S)[nH]c(N)c23)cc1	15.3 µM	61.1 µM	15.4 µM	31.3 µM	17.2 µM	36.3 µM	18.5 µM	45.1 µM	20 µM	61.6 µM	15.7 µM	36.9 µM	19.1 µM	65.5 µM	18.4 µM	41.2 µM	16.2 µM	31.9 µM	15.9 µM	36.9 µM
COc1ccc(CN2C(=O)C(Cc3cc(OC)c(OC)c(C)c3OC)N(C(=O)OC(C)C)C(=O)/C2=C/c2cc(OC)c(OC)c(C)c2OC)cc1 (stereo not given)		> 100 µM		> 100 µM		> 100 µM		> 100 µM		> 100 µM		> 100 µM		> 100 µM		> 100 µM		> 100 µM		> 100 µM
CCOc1cc(C=O)c2c(ccc3ccc(OC)c(OC)c32)c1OC		> 100 µM		> 100 µM		> 100 µM		> 100 µM		> 100 µM		> 100 µM		> 100 µM		> 100 µM		> 100 µM		> 100 µM
CCOC(=O)c1c[nH]c2c(OCc3ccccc3)c3ccccc3c(O)c2c1=O	5.78 µM	25.4 µM	3.74 µM	> 51.8 µM	2.52 µM	6.63 µM	22.2 µM	> 100 µM	2.09 µM	15.5 µM	4.28 µM	20.8 µM	4.97 µM	33.4 µM	42.5 µM	> 100 µM	37.4 µM	> 100 µM	4.29 µM	> 47.5 µM
C(=N/Nc1ncnc2nc[nH]c12)/c1ccccn1	0.569 µM	> 100 µM	0.46 µM	> 100 µM	1.87 µM	7.96 µM	0.84 µM	> 65.1 µM	0.774 µM	16 µM	1.57 µM	53.1 µM	1.19 µM	14.1 µM	1.34 µM	> 100 µM	0.422 µM	> 36.8 µM	3.29 µM	> 50.8 µM
C=CCCC(O)c1ccc(C(O)CCCCCCCCCCCC)o1 (stereo not given)	17.5 µM	31.9 µM	14.8 µM	28.6 µM	19.2 µM	40.1 µM	18.3 µM	34.2 µM	36.7 µM	> 100 µM	21.7 µM	43.9 µM	15.8 µM	29.2 µM	28.6 µM	89.4 µM	21.4 µM	37.2 µM	> 100 µM	> 100 µM
C[N+](C)(C)CCC(=O)N1C/C(=C\c2ccccc2)C(=O)/C(=C/c2ccccc2)C1		6 µM		2.98 µM		28.2 µM		4.59 µM		11.9 µM		20 µM		15.3 µM		30.1 µM		13.2 µM		22.4 µM
O=C(Nc1ncc(Cc2ccccc2)s1)c1ccc2c(c1)OCCO2	0.0418 µM	> 100 µM	0.0405 µM	> 100 µM	3.87 µM	> 100 µM	0.0748 µM	> 100 µM	0.0304 µM	1.49 µM	0.278 µM	7.01 µM	0.0676 µM	> 100 µM	0.101 µM	> 100 µM	0.0729 µM	1.63 µM	0.0375 µM	> 34.5 µM
CCOC(=O)C1=C(N)Oc2c(sc3c(C)cccc23)C1c1ccc(Cl)cc1 (stereo not given)	3.46 µM	14.8 µM	2.83 µM	12.1 µM	13.1 µM	30.4 µM	3.97 µM	16.1 µM	1.89 µM	4.26 µM	5.02 µM	19.8 µM	3.17 µM	17.6 µM	5.83 µM	22.4 µM	2.32 µM	6.63 µM	3.29 µM	11.6 µM
CC(C)c1ccc2c(N=Nc3ccc(S(N)(=O)=O)cc3)c(O)[nH]c2c1	5.09 µM	> 17.4 µM	11 µM	> 25 µM	> 21.5 µM	> 25 µM	> 14.8 µM	> 25 µM	11.2 µM	> 25 µM	6.62 µM	> 20.6 µM	> 14 µM	> 25 µM	> 13.1 µM	> 21.6 µM	> 21.1 µM	> 25 µM	5.72 µM	> 16.4 µM
